Laboratory results: paper PMC11272598, “RG7774 (Vicasinabin), an orally bioavailable cannabinoid receptor 2 (CB2R) agonist, decreases retinal vascular permeability, leukocyte adhesion, and ocular inflammation in animal models” (Frontiers in Pharmacology, 2024)

Experiments:
[1] = system: LPS-induced leukocyte adhesion; assay: LPS-induced leukocyte adhesion in rats with EIU (IVM); type: in vivo, Lewis rats; conditions: IV 1.0 mg/kg, 6 h after LPS
Procedure: Male BALB/c mice aged 8–10 weeks and weighing 21–26 g (Charles River, QC, Canada) were housed in individually ventilated Allentown cages (Allentown Inc., NJ, United States). Maximum density was n = 5 per cage, with the same litter and sex. Male Lewis rats aged 7–10 weeks and weighing 200–300 g (Charles River, QC, Canada) were housed in static cages (Allentown Inc., NJ, United States), n = 2 per cage with the same litter and sex. Both mice and rats were maintained in a controlled environment (21°C–22°C, humidity range 40%–60%, and a 12 h light/dark cycle), with unrestricted access to food and water. All experiments were conducted in accordance with the standards and procedures of the Canadian Council on Animal Care ([CCAC, 2024]) and were approved by the Dalhousie University Committee on Laboratory Animals. The protocol #13-027 was approved for experimental work in mice. […] All experiments were performed and are reported in accordance with the ARRIVE guidelines ([Kilkenny et al., 2010]; [McGrath et al., 2010]). […]
IVM was used for in vivo investigations of LPS-induced leukocyte recruitment as previously described ([Toguri et al., 2014]). […] The depth of anesthesia throughout the procedure was assessed by the absence of a toe-pinch reflex. […]

laser-induced CNV = assay: Laser-induced CNV in rats, fluorescein angiography lesion area; type: in vivo, Brown Norway rats; conditions: CNV rat model, ED50 0.037 mg/kg
Procedure: Male Brown Norway rats (Charles River, Sulzfeld, Germany) aged 9 weeks and weighing 200 g on arrival ([…] after 1 week) were housed in individually ventilated GR1800 cages (Tecniplast, Pontremoli, Italy) with a maximum density of n = 5 rats per cage with the same litter and sex. The room was kept at 20°C–24°C with 50%–60% humidity and a 12/12 h light-dark cycle with ad libitum access to standard diet and water.
RG7774 was formulated (w/w) in 0.1% hydroxyethyl cellulose, 1% polysorbate 80, 0.18% methylparaben, 0.02% propylparaben, and 0.21% citric acid monohydrate, adjusted to pH 6 using NaOH. Three studies with 20 rats each were performed. […] The wellbeing of the animals was monitored daily, and free access was granted to food and water. […] Body weight was continuously monitored, and oral doses of RG7774 were adjusted accordingly. […]
Rats were anesthetized 1 week after laser injury using fentanyl 0.005 mg/kg, medetomidine 0.15 mg/kg, and midazolam 2 mg/kg. […] Retinal vessels and neovascularization were visualized by switching to fluorescence mode.
Images taken by the Heidelberg Spectralis HRA system were manually analyzed for the degree of CNV within the lesion (fluorescent) area and the affected area (in mm^2) was calculated using the Heidelberg Eye Explorer imaging program (Heidelberg Spectralis HRA, Heidelberg Engineering, Heidelberg, Germany). […]

For `Cn1nnnc1Cn1nnc2c(N3CC[C@H](O)C3)nc(C(C)(C)C)nc21` [RG7774, (S)-1-(5-tert-butyl-3-[(1-methyl-1H-tetrazol-5-yl)methyl]-3H-[1,2,3]triazolo[4,5-d]pyrimidin-7-yl)pyrrolidin-3-ol], the “decrease in leukocyte adhesion compared to vehicle control” value [1] was 60%, the “maximum concentration of the free active epimer in plasma associated with the ED50” value (laser-induced CNV) was 12.5 nM and the “average concentration of the free active epimer in plasma associated with the ED50” value (laser-induced CNV; S/R-enantiomer ratio of 2 assumed) was 1.05 nM.
